Data as given in PubChem BioAssay (NCI).
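Growth conditions: 96-well plates. Treatment: test compound, 48 hours, 5 concentrations. Analysis: linear interpolation between bracketing concentrations; unreached endpoints set to highest concentration. GI50 is the concentration that inhibits growth by half. At the TGI there is no net growth.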

Tests used:
Test in all cases: NCI-60 cell line screen, 48 h; in the data active = GI50 below about 0.43 µM; inactive = the rest
NCI-H460 lung = test system: NCI-H460 lung
K-562 leukemia = test system: K-562 leukemia
CAKI-1 renal = test system: CAKI-1 renal
OVCAR-3 ovarian = test system: OVCAR-3 ovarian
SF-539 CNS = test system: SF-539 CNS
HOP-92 NSCLC = test system: HOP-92 NSCLC
SN12C renal = test system: SN12C renal
NCI-H226 lung = test system: NCI-H226 lung
SR leukemia = test system: SR leukemia
SNB-75 CNS = test system: SNB-75 CNS
OVCAR-4 ovarian = test system: OVCAR-4 ovarian
RPMI-8226 leukemia = test system: RPMI-8226 leukemia
HCC-2998 colon = test system: HCC-2998 colon
SK-OV-3 ovarian = test system: SK-OV-3 ovarian
SK-MEL-28 melanoma = test system: SK-MEL-28 melanoma
COLO 205 colon = test system: COLO 205 colon
MDA-MB-231 breast = test system: MDA-MB-231 breast
HS 578T breast = test system: HS 578T breast
T-47D breast = test system: T-47D breast
KM12 colon = test system: KM12 colon
IGROV1 ovarian = test system: IGROV1 ovarian
UACC-62 melanoma = test system: UACC-62 melanoma
SW-620 colon = test system: SW-620 colon
U251 CNS = test system: U251 CNS
ACHN renal = test system: ACHN renal
DU-145 prostate = test system: DU-145 prostate
OVCAR-5 ovarian = test system: OVCAR-5 ovarian
LOX IMVI melanoma = test system: LOX IMVI melanoma
HT29 colon = test system: HT29 colon
SF-268 CNS = test system: SF-268 CNS
HL-60(TB) leukemia = test system: HL-60(TB) leukemia
SF-295 CNS = test system: SF-295 CNS
786-0 renal = test system: 786-0 renal
NCI-H522 lung = test system: NCI-H522 lung
SK-MEL-2 melanoma = test system: SK-MEL-2 melanoma
MCF7 breast = test system: MCF7 breast
EKVX NSCLC = test system: EKVX NSCLC
A549 NSCLC = test system: A549 NSCLC
UO-31 renal = test system: UO-31 renal
MDA-MB-435 = test system: MDA-MB-435
PC-3 prostate = test system: PC-3 prostate
HOP-62 NSCLC = test system: HOP-62 NSCLC
A498 renal = test system: A498 renal
SNB-19 CNS = test system: SNB-19 CNS
NCI/ADR-RES ovarian = test system: NCI/ADR-RES ovarian
OVCAR-8 ovarian = test system: OVCAR-8 ovarian
MOLT-4 leukemia = test system: MOLT-4 leukemia
CCRF-CEM leukemia = test system: CCRF-CEM leukemia
SK-MEL-5 melanoma = test system: SK-MEL-5 melanoma
HCT-15 colon = test system: HCT-15 colon
M14 melanoma = test system: M14 melanoma
UACC-257 melanoma = test system: UACC-257 melanoma
RXF 393 renal = test system: RXF 393 renal
HCT-116 colon = test system: HCT-116 colon
BT-549 breast = test system: BT-549 breast
TK-10 renal = test system: TK-10 renal
NCI-H23 lung = test system: NCI-H23 lung
MALME-3M melanoma = test system: MALME-3M melanoma

O=C(NN1C(=O)CSC1c1ccc(F)cc1)C(O)c1ccccc1 (stereo unspecified)
inactive: GI50 (NCI-H460 lung) 81.8 µM | GI50 (K-562 leukemia) 43.3 µM | GI50 (CAKI-1 renal) > 100 µM | GI50 (OVCAR-3 ovarian) 79.5 µM | GI50 (SF-539 CNS) > 100 µM | GI50 (HOP-92 NSCLC) > 100 µM | GI50 (SN12C renal) > 100 µM | GI50 (NCI-H226 lung) > 100 µM | GI50 (SR leukemia) 60.8 µM | GI50 (SNB-75 CNS) 33.4 µM | GI50 (OVCAR-4 ovarian) > 100 µM | GI50 (RPMI-8226 leukemia) 44.4 µM | GI50 (HCC-2998 colon) > 100 µM | GI50 (SK-OV-3 ovarian) > 100 µM | GI50 (SK-MEL-28 melanoma) > 100 µM | GI50 (COLO 205 colon) > 100 µM | GI50 (MDA-MB-231 breast) 67.6 µM | GI50 (HS 578T breast) > 100 µM | GI50 (T-47D breast) 59.5 µM | GI50 (KM12 colon) > 100 µM | GI50 (IGROV1 ovarian) > 100 µM | GI50 (UACC-62 melanoma) 80.2 µM | GI50 (SW-620 colon) > 100 µM | GI50 (U251 CNS) 97.4 µM | GI50 (ACHN renal) 91.5 µM | GI50 (DU-145 prostate) > 100 µM | GI50 (OVCAR-5 ovarian) > 100 µM | GI50 (LOX IMVI melanoma) > 100 µM | GI50 (HT29 colon) > 100 µM | GI50 (SF-268 CNS) > 100 µM | GI50 (HL-60(TB) leukemia) 91.5 µM | GI50 (SF-295 CNS) > 100 µM | GI50 (786-0 renal) > 100 µM | GI50 (NCI-H522 lung) 93.6 µM | GI50 (SK-MEL-2 melanoma) > 100 µM | GI50 (MCF7 breast) > 100 µM | GI50 (EKVX NSCLC) > 100 µM | GI50 (A549 NSCLC) 90.9 µM | GI50 (UO-31 renal) > 100 µM | GI50 (MDA-MB-435) > 100 µM | GI50 (PC-3 prostate) 76.8 µM | GI50 (HOP-62 NSCLC) > 100 µM | GI50 (A498 renal) > 100 µM | GI50 (SNB-19 CNS) > 100 µM | GI50 (NCI/ADR-RES ovarian) > 100 µM | GI50 (OVCAR-8 ovarian) > 100 µM | GI50 (MOLT-4 leukemia) > 100 µM | GI50 (CCRF-CEM leukemia) > 100 µM | GI50 (SK-MEL-5 melanoma) > 100 µM | GI50 (HCT-15 colon) > 100 µM | GI50 (M14 melanoma) > 100 µM | GI50 (UACC-257 melanoma) > 100 µM | GI50 (RXF 393 renal) > 100 µM | GI50 (HCT-116 colon) > 100 µM | GI50 (BT-549 breast) > 100 µM | GI50 (TK-10 renal) > 100 µM
> 100 µM: TGI (NCI-H460 lung) | TGI (K-562 leukemia) | TGI (CAKI-1 renal) | TGI (OVCAR-3 ovarian) | TGI (SF-539 CNS) | TGI (HOP-92 NSCLC) | TGI (SN12C renal) | TGI (NCI-H226 lung) | TGI (SR leukemia) | TGI (SNB-75 CNS) | TGI (OVCAR-4 ovarian) | TGI (RPMI-8226 leukemia) | TGI (HCC-2998 colon) | TGI (SK-OV-3 ovarian) | TGI (SK-MEL-28 melanoma) | TGI (COLO 205 colon) | TGI (MDA-MB-231 breast) | TGI (HS 578T breast) | TGI (T-47D breast) | TGI (KM12 colon) | TGI (IGROV1 ovarian) | TGI (UACC-62 melanoma) | TGI (SW-620 colon) | TGI (U251 CNS) | TGI (ACHN renal) | TGI (DU-145 prostate) | TGI (OVCAR-5 ovarian) | TGI (LOX IMVI melanoma) | TGI (HT29 colon) | TGI (SF-268 CNS) | TGI (HL-60(TB) leukemia) | TGI (SF-295 CNS) | TGI (786-0 renal) | TGI (NCI-H522 lung) | TGI (SK-MEL-2 melanoma) | TGI (MCF7 breast) | TGI (EKVX NSCLC) | TGI (A549 NSCLC) | TGI (UO-31 renal) | TGI (MDA-MB-435) | TGI (PC-3 prostate) | TGI (HOP-62 NSCLC) | TGI (A498 renal) | TGI (SNB-19 CNS) | TGI (NCI/ADR-RES ovarian) | TGI (OVCAR-8 ovarian) | TGI (MOLT-4 leukemia) | TGI (CCRF-CEM leukemia) | TGI (SK-MEL-5 melanoma) | TGI (HCT-15 colon) | TGI (M14 melanoma) | TGI (UACC-257 melanoma) | TGI (RXF 393 renal) | TGI (HCT-116 colon) | TGI (BT-549 breast) | TGI (TK-10 renal)

O=S1(=O)C(c2ccccc2)=C(O)c2ccccc21
> 100 µM: TGI (NCI-H460 lung) | TGI (K-562 leukemia) | TGI (OVCAR-3 ovarian) | TGI (SF-539 CNS) | TGI (HOP-92 NSCLC) | TGI (NCI-H226 lung) | TGI (SNB-75 CNS) | TGI (OVCAR-4 ovarian) | TGI (RPMI-8226 leukemia) | TGI (HCC-2998 colon) | TGI (SK-MEL-28 melanoma) | TGI (COLO 205 colon) | TGI (MDA-MB-231 breast) | TGI (HS 578T breast) | TGI (T-47D breast) | TGI (NCI-H23 lung) | TGI (KM12 colon) | TGI (IGROV1 ovarian) | TGI (UACC-62 melanoma) | TGI (SW-620 colon) | TGI (U251 CNS) | TGI (ACHN renal) | TGI (DU-145 prostate) | TGI (OVCAR-5 ovarian) | TGI (LOX IMVI melanoma) | TGI (HT29 colon) | TGI (SF-268 CNS) | TGI (HL-60(TB) leukemia) | TGI (SF-295 CNS) | TGI (786-0 renal) | TGI (NCI-H522 lung) | TGI (MALME-3M melanoma) | TGI (SK-MEL-2 melanoma) | TGI (MCF7 breast) | TGI (EKVX NSCLC) | TGI (A549 NSCLC) | TGI (UO-31 renal) | TGI (MDA-MB-435) | TGI (PC-3 prostate) | TGI (HOP-62 NSCLC) | TGI (A498 renal) | TGI (SNB-19 CNS) | TGI (NCI/ADR-RES ovarian) | TGI (OVCAR-8 ovarian) | TGI (MOLT-4 leukemia) | TGI (CCRF-CEM leukemia) | TGI (SK-MEL-5 melanoma) | TGI (HCT-15 colon) | TGI (M14 melanoma) | TGI (UACC-257 melanoma) | TGI (RXF 393 renal) | TGI (HCT-116 colon) | TGI (BT-549 breast) | TGI (TK-10 renal)
